Results taken from PMC2965201 (Bioorganic & medicinal chemistry, 2010).

What was measured:
Rce1p [1] = assay: Large-scale Rce1p proteolysis with ESI-MS and MS-MS identification of product; assay type: biochemical, S. cerevisiae; settings: 150 μM substrate, membranes 0.3 mg/mL, 100 mM Hepes, 5 mM MgCl2, pH 7.5, 30 °C, 3–3.5 h; ESI-MS [M+2H]2+
yeast Rce1p = biological target: T1, yeast Rce1p (Saccharomyces cerevisiae, UniProt Q03530); assay: In vitro fluorescence-based Ca1a2X proteolysis assay; assay type: biochemical, S. cerevisiae
T1 sequence (Q03530 1-315): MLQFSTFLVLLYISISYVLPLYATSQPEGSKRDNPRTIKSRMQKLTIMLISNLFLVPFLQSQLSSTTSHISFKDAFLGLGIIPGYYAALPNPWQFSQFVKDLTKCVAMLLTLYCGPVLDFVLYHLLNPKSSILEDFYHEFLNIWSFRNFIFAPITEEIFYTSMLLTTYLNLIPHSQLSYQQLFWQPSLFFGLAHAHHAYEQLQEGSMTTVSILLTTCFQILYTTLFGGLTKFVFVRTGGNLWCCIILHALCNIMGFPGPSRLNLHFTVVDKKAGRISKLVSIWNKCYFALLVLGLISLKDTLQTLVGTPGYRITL

Rce1p [2] = settings: previously reported, ref [9], [10], [13], cited from earlier work; for Vmax: no quencher
Rce1p [3] = settings: ref [8], [10]; cited from earlier work

## Abz-KSKTKC(C5BP)K(Dnp)IM [Peptide 4]
Rce1p [1]
  identity of product of Rce1p-catalyzed proteolysis: consistent with the expected product 8
Yeast Rce1p; carbonate-washed yeast membranes, pH 7.5, 30 °C, n=2 (2), n=5 (4)
  Vmax/KM: 4.8×10^−5 min/mg protein
Yeast Rce1p; compared with 2
  binding affinity of 4 relative to 2 (fold higher, from KM): 3.4 fold
  efficiency (Vmax/KM) of 4 relative to 2 (fold lower): approximately 18 fold
  maximal rate of 4 relative to 2 (fold lower): approximately 60 fold

## Abz-KSKTKC(Fr)VIM
Rce1p [2]
  Vmax: 600 nmol/h/mg Rce1p-containing membrane protein
  Km: 4 µM

## c1cnc2c(c1)ccc1cccnc12 [1,10-phenanthroline]
Rce1p [3]
  inhibition of Rce1p: inhibited

## [Zn] [zinc]
Rce1p [3]
  inhibition of Rce1p: inhibited

## KSKTKC(Fr)VIM
Rce1p [2]
  Vmax: 600 nmol/h/mg Rce1p-containing membrane protein
  Km: 4 µM
